The results in this text go back to patent US9204653B2, “5-fluoro pyrimidine derivatives” (DOW AGROSCIENCES LLC, priority 2008, dated 2015).

Where two headings read alike, the source gives them in different places.

This assay has as its system Mycosphaerella graminicola; Anamorph: Septoria tritici; Bayer Code SEPTTR. Kind of assay: Leaf blotch of wheat, foliar fungicide treatment, one day protectant (1DP) or three day curative (3DC). It is filed as in vivo, Septoria tritici on wheat plants (variety Yuma). The settings on record: Zymoseptoria tritici; for pest or weed control at 50 ppm / pest or weed control at 200 ppm: % disease control rating, one day protectant; for pest or weed control at 25 ppm / pest or weed control at 100 ppm: percent control rating; for pest or weed control at 100 ppm: read-out: SEPTTR 3DC 100 ppm.

Setting [1] is: 24 h, one day protectant (1DP), 25 ppm (first 1DP column), read-out: SETTTR 1DP 25 ppm.
[2] abbreviates: 24 h, one day protectant (1DP), 25 ppm as printed (second 1DP column), read-out: SETTTR 1DP 25 ppm.
Where [3] appears, read: 72 h, three day curative (3DC), 25 ppm, read-out: SEPTTR 3DC 25 ppm.

As to `Fc1cnc(OCc2ccco2)nc1N1CCOCC1` [Compound 944], where the note is “24 h”, the pest or weed control at 50 ppm lay within 0 to 25% and the pest or weed control at 200 ppm was 0 to 25%.

Where the note is “24 h”, `Fc1cnc(OCc2cccs2)nc1NCc1ccc(Cl)cc1` [Compound 945] registered a pest or weed control at 50 ppm of 76 to 100% and a pest or weed control at 200 ppm of 76 to 100%.

Under “24 h”, `Fc1cnc(OCc2ccco2)nc1NCc1ccc(Cl)cc1` [Compound 946] gave a pest or weed control at 50 ppm of 51 to 75% and a pest or weed control at 200 ppm of 76 to 100%.

For the compound `CC(=O)Nc1nc(OCc2ccc(C(F)(F)F)cc2)ncc1F` [Compound 947], for the setting “24 h”, the pest or weed control at 50 ppm was in the range of 76 to 100% and the pest or weed control at 200 ppm was in the range of 76 to 100%.

Where the note is “24 h”, `Fc1ccccc1CNc1nc(OCCc2ccccc2)ncc1F` [Compound 948] displayed a pest or weed control at 50 ppm of 0 to 25% and a pest or weed control at 200 ppm of 0 to 25%.

Regarding `Cc1ccc(COc2ncc(F)c(NCc3cccs3)n2)cc1` [Compound 949], where the note is “24 h”, the pest or weed control at 50 ppm is 51 to 75% and the pest or weed control at 200 ppm is 76 to 100%.

`Fc1cnc(OCC(F)(F)F)nc1NCc1ccc2c(c1)OCO2` [Compound 950]: where the note is “24 h”, the pest or weed control at 50 ppm was in the range of 0 to 25% and the pest or weed control at 200 ppm is 0 to 25%.

Take `Cc1ccc(CNc2nc(OCc3ccc(F)cc3)ncc2F)cc1` [Compound 951]: where the note is “24 h”, the pest or weed control at 50 ppm was 51 to 75% and the pest or weed control at 200 ppm was in the range of 76 to 100%.

For the compound `Fc1ccccc1CNc1nc(OCc2ccc(OC(F)(F)F)cc2)ncc1F` [Compound 953], where the note is “24 h”, the pest or weed control at 50 ppm lay within 26 to 50% and the pest or weed control at 200 ppm fell in the range of 76 to 100%.

Consider `COc1ccccc1NC(=O)Nc1nc(O)ncc1F` [Compound 954, 1-(5-Fluoro-2-hydroxypyrimidin-4-yl)-3-(2-methoxyphenyl)urea], for which the pest or weed control at 25 ppm under setting [1] is 26 to 50%, the pest or weed control at 25 ppm under setting [2] lay within 26 to 50% and the pest or weed control at 25 ppm under setting [3] was 26 to 50%. Further, the pest or weed control at 100 ppm (72 h, three day curative (3DC)) lay within 51 to 75%.

Turning to `Cc1ccc(COc2ncc(F)c(NS(=O)(=O)c3ccc(C)cc3)n2)cc1` [Compound 955, N-(5-Fluoro-2-(4-methylbenzyloxy)pyrimidin-4-yl)-4-methylbenzenesulfonamide], the pest or weed control at 25 ppm runs as follows: under setting [1], 0 to 25%; under setting [2], 0 to 25%; under setting [3], 0 to 25%. The pest or weed control at 100 ppm (72 h, three day curative (3DC)) lay within 0 to 25%.

Take `O=S(=O)(Nc1nc(O)ncc1F)c1ccccc1` [Compound 956, N-(5-Fluoro-2-hydroxypyrimidin-4-yl)benzenesulfonamide]: the pest or weed control at 25 ppm is, setting by setting: under setting [1], 0 to 25%; under setting [2], 0 to 25%; under setting [3], 0 to 25%. The pest or weed control at 100 ppm (72 h, three day curative (3DC)) lay in the range of 0 to 25%.

In the case of `CN(Cc1ccccc1)c1nc(O)ncc1F` [Compound 957, 4-(Benzylmethylamino)-5-fluoropyrimidin-2-ol], the pest or weed control at 25 ppm under setting [1] lay in the range of 0 to 25%, the pest or weed control at 25 ppm under setting [2] was in the range of 0 to 25% and the pest or weed control at 25 ppm under setting [3] lay in the range of 26 to 50%. Where the note is “72 h, three day curative (3DC)”, the pest or weed control at 100 ppm lay in the range of 26 to 50%.

Consider `Fc1cnc(OCc2ccccc2)nc1/N=N/c1cccc(C(F)(F)F)c1` [Compound 958], for which the pest or weed control at 25 ppm lay within 0 to 25% under setting [1], 0 to 25% under setting [2] and 26 to 50% under setting [3]. Moreover, for the setting “72 h, three day curative (3DC)”, the pest or weed control at 100 ppm was in the range of 26 to 50%.

For the compound `C=CCOc1ncc(F)c(NNC(=O)c2cccc(C)c2)n1` [Compound 959, N′-(2-(allyloxy)-5-fluoropyrimidin-4-yl)-3-methylbenzohydrazide], the pest or weed control at 25 ppm fell in the range of 0 to 25% under setting [1], 0 to 25% under setting [2] and 0 to 25% under setting [3]. Moreover, the pest or weed control at 100 ppm (72 h, three day curative (3DC)) was in the range of 0 to 25%.

Take `COc1ccc(/C=N/Nc2nc(O)ncc2F)cc1` [Compound 960, (E)-5-Fluoro-4-(2-(4-methoxybenzylidene)hydrazinyl)pyrimidin-2(1H)-one]: the pest or weed control at 25 ppm is, setting by setting: under setting [1], 0 to 25%; under setting [2], 0 to 25%; under setting [3], 0 to 25%. In addition, under “72 h, three day curative (3DC)”, the pest or weed control at 100 ppm is 0 to 25%.
